Laboratory results as given in ChEMBL document CHEMBL4831493 (Eur J Med Chem, 2021).
Calls of active or inactive are those of the source. The calls are words filed in the database; no cut-off is given here.

What was measured:
[1] = biological target: Mitogen-activated protein kinase 3 (Homo sapiens) (UniProt P27361); test: Inhibition of ERK1 (unknown origin) at 0.3 uM
HT-22 = test: Neuroprotective activity in mouse HT-22 cells assessed as glutamate-induced cell mortality at 6 uM preincubated for 1 hr followed by addition of glutamate and measured after 24 hrs (reference value: 58%); format: functional; conditions: time 25 hrs
Mus musculus [2] = test: Cognitive enhancing effect in mouse model of scopolamine-induced amnesia assessed as escape latency time at 10 mg/kg/day, po measured by Morris water maze test (reference value: 17.9 sec); format: functional
[3] = biological target: T1, Acetylcholinesterase (Mus musculus) (UniProt P21836); conditions: ICR, dose 10.0 mg/kg, time 1.5 hrs
T1 sequence (whole entry): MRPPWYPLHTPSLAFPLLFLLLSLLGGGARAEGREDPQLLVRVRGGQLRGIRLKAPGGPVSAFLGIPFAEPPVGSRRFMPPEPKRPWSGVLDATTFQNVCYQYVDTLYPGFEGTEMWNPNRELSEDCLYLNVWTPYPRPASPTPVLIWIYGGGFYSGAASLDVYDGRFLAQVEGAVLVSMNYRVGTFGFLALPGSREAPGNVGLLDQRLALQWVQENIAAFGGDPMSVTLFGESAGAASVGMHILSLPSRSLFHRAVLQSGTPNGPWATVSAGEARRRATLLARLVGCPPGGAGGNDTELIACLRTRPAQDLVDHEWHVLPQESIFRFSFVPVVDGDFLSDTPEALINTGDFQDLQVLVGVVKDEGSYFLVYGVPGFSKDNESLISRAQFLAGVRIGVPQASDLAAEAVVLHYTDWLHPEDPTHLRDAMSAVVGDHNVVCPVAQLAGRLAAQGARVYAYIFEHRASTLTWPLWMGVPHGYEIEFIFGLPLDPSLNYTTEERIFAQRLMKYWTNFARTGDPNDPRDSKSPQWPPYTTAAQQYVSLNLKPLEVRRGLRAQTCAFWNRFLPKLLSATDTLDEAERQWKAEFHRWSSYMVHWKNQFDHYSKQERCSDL

[4] = biological target: Mitogen-activated protein kinase 1 (Homo sapiens) (UniProt P28482); test: Inhibition of ERK2 (unknown origin) at 0.3 uM
Mitogen-activated protein kinase 1 (Homo sapiens), sequence (P28482 whole entry): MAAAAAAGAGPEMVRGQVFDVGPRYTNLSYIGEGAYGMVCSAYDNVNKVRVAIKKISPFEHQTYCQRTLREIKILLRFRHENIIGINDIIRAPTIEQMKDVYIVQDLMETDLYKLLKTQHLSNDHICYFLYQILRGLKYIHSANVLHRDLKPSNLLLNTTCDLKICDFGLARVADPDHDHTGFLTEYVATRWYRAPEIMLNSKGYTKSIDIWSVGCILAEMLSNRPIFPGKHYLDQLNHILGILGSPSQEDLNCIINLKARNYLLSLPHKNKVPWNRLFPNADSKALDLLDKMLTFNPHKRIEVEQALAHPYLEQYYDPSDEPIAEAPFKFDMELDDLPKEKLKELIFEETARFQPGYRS

Acetylcholinesterase = Acetylcholinesterase (Electrophorus electricus, UniProt O42275); test: Inhibition of electric eel recombinant AChE preincubated for 1 min in presence of DNTB followed by addition of acetylthiocholine iodide substrate and measured after 20 mins by Ellman's method
Acetylcholinesterase, sequence (O42275 whole entry): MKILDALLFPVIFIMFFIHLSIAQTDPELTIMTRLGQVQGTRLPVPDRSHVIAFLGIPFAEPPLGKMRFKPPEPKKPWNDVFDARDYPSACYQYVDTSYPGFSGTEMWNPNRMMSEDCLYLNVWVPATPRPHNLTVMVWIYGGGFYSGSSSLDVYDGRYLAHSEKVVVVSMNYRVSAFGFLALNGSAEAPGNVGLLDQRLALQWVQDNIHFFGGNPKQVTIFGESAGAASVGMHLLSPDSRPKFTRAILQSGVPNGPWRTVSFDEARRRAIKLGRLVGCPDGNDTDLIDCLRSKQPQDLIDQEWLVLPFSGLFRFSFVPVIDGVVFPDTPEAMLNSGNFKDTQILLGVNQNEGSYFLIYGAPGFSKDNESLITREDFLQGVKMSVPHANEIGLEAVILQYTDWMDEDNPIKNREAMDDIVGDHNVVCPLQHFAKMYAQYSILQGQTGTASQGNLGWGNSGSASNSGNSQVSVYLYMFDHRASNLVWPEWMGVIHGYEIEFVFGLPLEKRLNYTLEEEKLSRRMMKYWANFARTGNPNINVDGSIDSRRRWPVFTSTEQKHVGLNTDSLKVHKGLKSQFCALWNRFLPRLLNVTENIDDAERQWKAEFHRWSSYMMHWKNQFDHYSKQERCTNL

[5] = Ratio of drug level in brain to plasma of ICR mouse at 10 mg/kg, po measured after 1.5 hrs by LC/MS/MS analysis; format: ADME, organism-based; conditions: brain and plasma
[6] = Oral bioavailability in Sprague-Dawley rat at 10 mg/kg measured up to 24 hrs by LC-MS/MS analysis; format: ADME, organism-based; conditions: in vivo
[7] = Drug level in ICR mouse brain at 10 mg/kg, po measured after 1.5 hrs by LC/MS/MS analysis; format: ADME, organism-based; conditions: read-out: Ct
Mus musculus [8] = test: Improvement in learning and spatial memory in amyloid beta (1 to 42)-induced mouse model of Alzheimer's disease assessed as increase in spontaneous alteration at 10 mg/kg/day, po pretreated with amyloid beta42 for 3 days followed by treatment with compound and measured after 9 days measured by Y-maze test; format: functional, organism-based; conditions: time 9.0 day
[9] = biological target: Cyclin-dependent kinase 6 (Homo sapiens) (UniProt Q00534); test: Inhibition of CDK6 (unknown origin) at 0.3 uM
Cyclin-dependent kinase 6 (Homo sapiens), sequence (Q00534 whole entry): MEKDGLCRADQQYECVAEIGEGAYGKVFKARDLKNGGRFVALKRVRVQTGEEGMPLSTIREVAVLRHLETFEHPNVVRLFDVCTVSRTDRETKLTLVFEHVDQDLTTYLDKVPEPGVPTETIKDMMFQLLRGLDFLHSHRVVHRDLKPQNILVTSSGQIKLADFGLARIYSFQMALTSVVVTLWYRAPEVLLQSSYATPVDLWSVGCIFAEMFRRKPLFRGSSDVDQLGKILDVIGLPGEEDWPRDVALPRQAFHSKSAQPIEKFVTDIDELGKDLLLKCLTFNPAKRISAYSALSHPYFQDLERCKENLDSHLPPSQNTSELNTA

[10] = biological target: Mitogen-activated protein kinase 12 (Homo sapiens) (UniProt P53778); test: Inhibition of p38gamma (unknown origin) at 0.3 uM
Mitogen-activated protein kinase 12 (Homo sapiens), sequence (P53778 whole entry): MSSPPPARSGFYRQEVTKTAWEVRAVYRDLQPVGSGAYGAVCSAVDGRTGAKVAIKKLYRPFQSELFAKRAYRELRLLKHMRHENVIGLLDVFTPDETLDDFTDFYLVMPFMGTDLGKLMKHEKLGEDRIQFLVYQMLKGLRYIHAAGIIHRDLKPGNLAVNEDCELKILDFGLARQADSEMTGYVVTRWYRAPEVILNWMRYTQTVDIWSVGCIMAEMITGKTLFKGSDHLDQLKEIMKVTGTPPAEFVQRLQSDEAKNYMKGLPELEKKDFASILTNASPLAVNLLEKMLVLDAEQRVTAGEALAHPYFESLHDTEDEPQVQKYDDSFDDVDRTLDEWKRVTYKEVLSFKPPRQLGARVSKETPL

[11] = biological target: Cyclin-dependent kinase 9 (Homo sapiens) (UniProt P50750); test: Inhibition of CDK9 (unknown origin) at 0.3 uM
Cyclin-dependent kinase 9 (Homo sapiens), sequence (P50750 whole entry): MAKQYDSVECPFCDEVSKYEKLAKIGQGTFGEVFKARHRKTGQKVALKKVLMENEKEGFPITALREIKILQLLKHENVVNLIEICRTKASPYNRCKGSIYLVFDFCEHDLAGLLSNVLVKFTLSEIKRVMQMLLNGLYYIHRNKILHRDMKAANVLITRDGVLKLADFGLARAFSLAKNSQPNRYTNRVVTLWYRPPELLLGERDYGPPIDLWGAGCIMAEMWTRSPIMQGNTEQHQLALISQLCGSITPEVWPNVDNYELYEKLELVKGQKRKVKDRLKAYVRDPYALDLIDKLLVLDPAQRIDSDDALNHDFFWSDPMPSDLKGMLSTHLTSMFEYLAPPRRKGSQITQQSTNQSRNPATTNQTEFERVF

Mus musculus [12] = test: Improvement in learning and spatial memory in amyloid beta (1 to 42)-induced mouse model of Alzheimer's disease at 10 mg/kg/day, po pretreated with amyloid beta42 for 3 days followed by treatment with compound and measured after 9 days measured by Y-maze test; format: functional, organism-based; conditions: time 9.0 day
[13] = biological target: Glycogen synthase kinase-3 beta (Mus musculus) (UniProt Q9WV60); test: Inhibition of GSK3beta in mouse N2a cells overexpressing human tau assessed as decrease in tau phosphorylation at Ser396 residue at 0.9 uM measured after 6 hrs by Western blot assay; format: cell-based
Glycogen synthase kinase-3 beta (Mus musculus), sequence (Q9WV60 whole entry, looked up): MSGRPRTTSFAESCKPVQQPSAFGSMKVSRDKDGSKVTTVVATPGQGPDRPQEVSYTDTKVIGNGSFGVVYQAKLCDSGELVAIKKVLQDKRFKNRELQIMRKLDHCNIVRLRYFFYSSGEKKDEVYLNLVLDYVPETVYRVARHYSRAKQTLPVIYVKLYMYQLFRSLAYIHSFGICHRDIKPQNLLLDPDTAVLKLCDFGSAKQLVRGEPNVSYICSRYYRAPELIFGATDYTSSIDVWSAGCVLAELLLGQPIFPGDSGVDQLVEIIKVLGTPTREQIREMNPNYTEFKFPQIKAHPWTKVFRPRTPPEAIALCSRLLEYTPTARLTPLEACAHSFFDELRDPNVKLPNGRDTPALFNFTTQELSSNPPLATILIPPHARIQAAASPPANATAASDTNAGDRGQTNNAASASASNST

[14] = biological target: Dual specificity tyrosine-phosphorylation-regulated kinase 1B (Homo sapiens) (UniProt Q9Y463); test: Inhibition of dyrk1 beta (unknown origin) at 0.3 uM
Dual specificity tyrosine-phosphorylation-regulated kinase 1B (Homo sapiens), sequence (Q9Y463 whole entry, looked up): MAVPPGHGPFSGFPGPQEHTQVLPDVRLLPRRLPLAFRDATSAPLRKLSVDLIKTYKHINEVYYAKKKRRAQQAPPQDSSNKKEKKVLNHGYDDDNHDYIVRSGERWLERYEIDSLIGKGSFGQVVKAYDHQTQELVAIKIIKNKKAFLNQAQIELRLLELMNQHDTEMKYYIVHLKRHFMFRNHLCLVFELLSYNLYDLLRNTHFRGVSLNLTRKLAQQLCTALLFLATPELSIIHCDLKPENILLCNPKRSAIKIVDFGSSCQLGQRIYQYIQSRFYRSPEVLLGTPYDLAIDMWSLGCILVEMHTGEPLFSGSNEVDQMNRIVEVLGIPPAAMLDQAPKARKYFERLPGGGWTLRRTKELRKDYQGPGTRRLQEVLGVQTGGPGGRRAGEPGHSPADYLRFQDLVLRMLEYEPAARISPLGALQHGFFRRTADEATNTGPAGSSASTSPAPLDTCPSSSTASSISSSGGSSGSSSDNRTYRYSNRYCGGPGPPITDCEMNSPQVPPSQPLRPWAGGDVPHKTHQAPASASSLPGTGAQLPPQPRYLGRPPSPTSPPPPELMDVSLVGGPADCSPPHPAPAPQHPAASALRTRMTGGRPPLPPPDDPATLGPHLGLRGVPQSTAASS

[15] = AUC (0 to infinity) in Sprague-Dawley rat at 10 mg/kg, po measured up to 24 hrs by LC-MS/MS analysis; format: ADME, organism-based; set-up: route oral, dose 10 mg/kg, time <=24; conditions: in vivo
[16] = biological target: Mitogen-activated protein kinase 14 (Homo sapiens) (UniProt Q16539); test: Inhibition of p38alpha (unknown origin) at 0.3 uM
Mitogen-activated protein kinase 14 (Homo sapiens), sequence (Q16539 whole entry): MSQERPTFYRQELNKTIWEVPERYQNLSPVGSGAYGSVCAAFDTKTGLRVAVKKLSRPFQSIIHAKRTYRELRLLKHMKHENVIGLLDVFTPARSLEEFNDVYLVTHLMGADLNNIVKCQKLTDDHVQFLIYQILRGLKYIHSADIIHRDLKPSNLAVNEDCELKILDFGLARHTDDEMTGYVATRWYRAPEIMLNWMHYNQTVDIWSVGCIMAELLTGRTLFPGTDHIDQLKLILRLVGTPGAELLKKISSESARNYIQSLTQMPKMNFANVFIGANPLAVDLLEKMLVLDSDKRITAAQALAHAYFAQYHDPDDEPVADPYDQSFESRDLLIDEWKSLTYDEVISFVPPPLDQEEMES

[17] = biological target: Cyclin-dependent kinase 2 (Homo sapiens) (UniProt P24941); test: Inhibition of CDK2 (unknown origin) at 0.3 uM

Mitogen-activated protein kinase 3 (Homo sapiens), sequence (P27361 whole entry): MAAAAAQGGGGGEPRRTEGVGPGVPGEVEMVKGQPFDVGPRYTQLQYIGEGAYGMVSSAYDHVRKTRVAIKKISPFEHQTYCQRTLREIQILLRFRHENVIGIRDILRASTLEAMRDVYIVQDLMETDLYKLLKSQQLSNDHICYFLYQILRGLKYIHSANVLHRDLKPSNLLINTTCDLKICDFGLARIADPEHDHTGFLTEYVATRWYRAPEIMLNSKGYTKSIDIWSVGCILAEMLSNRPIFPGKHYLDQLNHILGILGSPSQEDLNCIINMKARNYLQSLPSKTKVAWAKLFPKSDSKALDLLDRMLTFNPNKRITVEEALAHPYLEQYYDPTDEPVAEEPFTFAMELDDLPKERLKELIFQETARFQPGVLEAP

Structure (SMILES): O=C(Nc1cncc(OCC2CCN(Cc3ccc(F)cc3)CC2)c1)c1ccnc(NC(=O)C2CC2)c1
- inhibition [1]: inactive
- Activity (HT-22): 66%
- Time (Mus musculus [2]): 18.1 s
- inhibition [3]: 46.2%
- inhibition [4]: inactive
- IC50 (Acetylcholinesterase): 11.8 nM
- Kp at 1.5 h [5]: 0.33
- bioavailability [6]: 31%
- concentration at 1.5 h [7]: 113 ng/g
- Activity (Mus musculus [8]): Active
- inhibition [9]: inactive
- inhibition [10]: inactive
- inhibition [11]: inactive
- Activity (Mus musculus [12]): Active
- inhibition [13]: inactive
- inhibition [14]: inactive
- AUC(0-inf) [15]: 1260 ng·h/mL
- inhibition [16]: inactive
- inhibition [17]: inactive
